Measured values published in US4492650A, “A54556 Antibiotics and process for production thereof” (Eli Lilly and Company, priority 1982, dated 1985).
Values after ≈ are worked out from the molar mass of the structure shown. Values joined by “and” are separate entries in the source; they are usually repeats but may differ in a detail not shown here. Equal values may be shown once. Read-outs that look alike come from different tables or passages of the source. Bridge positions count the residues as written; N and C are the ends. Square brackets hold non-standard residues; d marks the D form. Peptide text beside a SMILES is read from it. * marks the point of attachment. ξ: configuration not given here. Octatrienoyl(2E,4E,6E) = C/C=C/C=C/C=C/C(=O)*; Hexadienoyl(2E,4E) = C/C=C/C=C/C(=O)*; ξPro(4ξ-Me) = CC1CNC(C(=O)O)C1; NMeA = CN[CH](C)C(=O)O

Experiments:
[1] = tested on: Streptococcus sp. (Group D) X66; test: Disc-plate sensitivity; type: cell-based; details: second test, Table 13; for zone of inhibition at 30 µg/disc / zone of inhibition at 300 µg/disc: Streptococcus
Bacteroides fragilis 111 = test: MIC, agar-dilution method; type: cell-based
Text: (§1) Antibiotic A54556 factors A, B, C, D, E, F, G, and H have been tested and found to be active against a number of anaerobic bacteria, as recorded in Table 14, which follows, the MIC values having been determined by the agar-dilution method.

[2] = tested on: Bacteroides fragilis 1877; test: MIC, agar-dilution method; type: cell-based
Text: as §1

[3] = tested on: Bacteroides fragilis 1936B; test: MIC, agar-dilution method; type: cell-based
Text: as §1

[4] = tested on: Bacteroides melaninogenicus 1856/28; test: MIC, agar-dilution method; type: cell-based; details: Prevotella intermedia
Text: as §1

[5] = tested on: Bacteroides melaninogenicus 2736; test: MIC, agar-dilution method; type: cell-based
Text: as §1

[6] = tested on: Bacteroides thetaiotaomicron 1438; test: MIC, agar-dilution method; type: cell-based
Text: as §1

[7] = tested on: Clostridium difficile 2994; test: MIC, agar-dilution method; type: cell-based; details: Clostridioides difficile
Text: as §1

[8] = tested on: Clostridium septicum 1128; test: MIC, agar-dilution method; type: cell-based
Text: as §1

[9] = tested on: Eubacterium aerofaciens 1235; test: MIC, agar-dilution method; type: cell-based; details: Collinsella aerofaciens
Text: as §1

[10] = tested on: Fusobacterium necrophorum 6054A; test: MIC, agar-dilution method; type: cell-based
Text: as §1

[11] = tested on: Peptostreptococcus intermedius 1264; test: MIC, agar-dilution method; type: cell-based
Text: as §1

[12] = tested on: Propionibacterium acnes 79; test: MIC, agar-dilution method; type: cell-based; details: Cutibacterium acnes
Text: as §1

[13] = tested on: Clostridium perfringens 81; test: microbe, parasite or virus in culture; type: cell-based
[14] = tested on: Peptococcus asaccharolyticus 1302; test: MIC, agar-dilution method; type: cell-based; details: Peptoniphilus asaccharolyticus
Peptococcus prevoti 1281 = test: MIC, agar-dilution method; type: cell-based
[15] = tested on: Peptostreptococcus anaerobius 1428; test: MIC, agar-dilution method; type: cell-based
[16] = tested on: Bacteroides vulgatis 1211; test: MIC, agar-dilution method; type: cell-based
[17] = tested on: Bacteroides corrodens 1874; test: MIC, agar-dilution method; type: cell-based; details: Eikenella corrodens
[18] = tested on: Fusobacterium symbiosum 1470; test: MIC, agar-dilution method; type: cell-based
S. pyogenes = test: In vivo protection against experimental bacterial infection in mice; details: Streptococcus pyogenes, sc, two doses subcutaneously
Description: (§2) When two doses of test compound were administered subcutaneously to mice in illustrative infections, the activity is measured as an ED50 value [effective does in mg./kg. to protect fifty percent of the test animals: See Warren Wick et al., J. Bacteriol. 81, 233-235 (1961)]. The ED50 values for these antibiotic A54556 factors are recorded in Table 15, which follows.

Electrometric titration = type: physicochemical; details: 66 percent dimethylformamide in water
Text: Antibiotic A54556 factor A is a tan, amorphous solid. […] As determined by electron impact and field desorption mass spectrometry, A54556 factor A has a molecular weight of 718.

anaerobic bacteria = test: Activity against anaerobic bacteria; type: cell-based; details: agar-dilution method
[19] = tested on: experimental bacterial infections; test: In vivo antimicrobial activity against experimental bacterial infections; details: mice, subcutaneously
Description: as §2

[20] = tested on: Staphylococcus aureus 3055; details: benzylpenicillin-susceptible
[21] = tested on: Staphylococcus aureus 3074; details: Table 12, benzylpenicillin resistant
[22] = tested on: Staphylococcus aureus 3130; details: Table 12, benzylpenicillin resistant, methicillin resistant
[23] = tested on: Streptococcus pyogenes (Group A) C203
[24] = tested on: Streptococcus pneumoniae Park I
[25] = tested on: Staphylococcus aureus V41; details: second test, Table 13, benzylpenicillin resistant
[26] = tested on: Staphylococcus epidermidis EPI1; details: second test, Table 13
Solubility = details: for solubility in organic solvents: lower alcohols (methyl, ethyl, isopropyl, n-propyl, n-butyl), acetone, ethyl acetate, tetrahydrofuran, pyridine, dimethyl sulfoxide
[27] = tested on: Streptococcus sp. (Group D) 9960; test: Disc-plate sensitivity; details: read-out: Zone diameter
[28] = read-out: Zone diameter, 30 mcg./disc
[29] = read-out: Zone diameter, 300 mcg./disc
[30] = 30 mcg./disc, second test, Table 13
[31] = 300 mcg./disc, second test, Table 13
[32] = 30 mcg./disc, second test, Table 13, listed as A
[33] = 30 mcg./disc, second test, Table 13, listed as E
[34] = 300 mcg./disc, second test, Table 13, listed as C

C/C=C/C=C/C=C/C(=O)NC(Cc1ccccc1)C(=O)NC1COC(=O)C2CCCN2C(=O)C(C)NC(=O)C(C)N(C)C(=O)C2CC(C)CN2C1=O (stereo not shown) [Factor A] ({Octatrienoyl(2E,4E,6E)}-FS[ξPro(4ξ-Me)][NMeA]AP; ester 2-C; configuration not given here)
Zone diameter ([1]; 30 mcg./disc, listed as A): 28 mm. | Zone diameter ([1]; 300 mcg./disc): 29 mm. | zone of inhibition at 30 µg/disc [1, 28]: 23 mm | zone of inhibition at 300 µg/disc [1, 29]: 33 mm | MIC (Bacteroides fragilis 111): > 128 µg/mL | MIC [2]: > 128 µg/mL | MIC [3]: > 128 µg/mL | MIC [4]: > 128 µg/mL | MIC [5]: > 128 µg/mL | MIC [6]: > 128 µg/mL | MIC [7]: > 128 µg/mL | MIC [8]: > 128 µg/mL | MIC [9]: > 128 µg/mL | MIC [10]: > 128 µg/mL | MIC [11]: > 128 µg/mL | MIC [12]: > 128 µg/mL | MIC [13]: > 128 µg/mL | MIC [14]: > 128 µg/mL | MIC (Peptococcus prevoti 1281): > 128 µg/mL | MIC [15]: > 128 µg/mL | MIC [16]: > 128 µg/mL | MIC [17]: > 128 µg/mL | MIC [18]: > 128 µg/mL | ED50 (S. pyogenes): > 70 mg/kg | titratable groups (Electrometric titration): no titratable groups | activity against a number of anaerobic bacteria (anaerobic bacteria): active | in vivo antimicrobial activity against experimental bacterial infections [19]: have shown in vivo antimicrobial activity | Zone diameter ([20]; 30 mcg./disc, Table 12): 19.2 mm. | Zone diameter [20, 30]: 19 mm. and 21 mm. | Zone diameter ([20]; 300 mcg./disc, Table 12): 24.3 mm. | Zone diameter [20, 31]: 24 mm. | Zone diameter ([20]; 300 mcg./disc, second test, Table 13, listed as A): 28 mm. | Zone diameter ([21]; 30 mcg./disc): 18.3 mm. | Zone diameter ([21]; 300 mcg./disc): 20.9 mm. | Zone diameter ([22]; 30 mcg./disc): 21.7 mm. | Zone diameter ([22]; 300 mcg./disc): 25.5 mm. | Zone diameter ([23]; 30 mcg./disc, Table 12): 24.0 mm. | Zone diameter [23, 30]: 25 mm. | Zone diameter [23, 32]: 20 mm. | Zone diameter ([23]; 300 mcg./disc, Table 12): 30.0 mm. | Zone diameter [23, 31]: 30 mm. and 32 mm. | Zone diameter ([24]; 30 mcg./disc, Table 12): 26.0 mm. | Zone diameter [24, 32]: 18 mm. and 22 mm. | Zone diameter ([24]; 300 mcg./disc, Table 12): 34.0 mm. | Zone diameter [24, 31]: 33 mm. and 35 mm. | Zone diameter ([25]; 30 mcg./disc): 20 mm. and 22 mm. | Zone diameter ([25]; 300 mcg./disc): 27 mm. and 33 mm. | Zone diameter ([26]; 30 mcg./disc): 20 mm. | Zone diameter ([26]; 300 mcg./disc): 22 mm. and 28 mm. | solubility in organic solvents (Solubility): soluble | solubility in water (Solubility; water): insoluble | zone of inhibition at 30 µg/disc [27]: 22.4 mm | zone of inhibition at 300 µg/disc [27]: 28 mm

C/C=C/C=C/C(=O)NC(Cc1ccccc1)C(=O)NC1COC(=O)C2CCCN2C(=O)C(C)NC(=O)C(C)N(C)C(=O)C2CCCN2C1=O (stereo not shown) [Factor E] ({Hexadienoyl(2E,4E)}-FSP[NMeA]AP; ester 2-C; configuration not given here)
Zone diameter ([1]; 30 mcg./disc, listed as E): 21 mm. | Zone diameter ([1]; 300 mcg./disc): 27 mm. | zone of inhibition at 30 µg/disc [1, 28]: 22 mm | zone of inhibition at 300 µg/disc [1, 29]: 28 mm | MIC (Bacteroides fragilis 111): > 128 µg/mL | MIC [2]: > 128 µg/mL | MIC [3]: > 128 µg/mL | MIC [4]: > 128 µg/mL | MIC [5]: > 128 µg/mL | MIC [6]: > 128 µg/mL | MIC [7]: > 128 µg/mL | MIC [8]: > 128 µg/mL | MIC [9]: > 128 µg/mL | MIC [10]: > 128 µg/mL | MIC [11]: > 128 µg/mL | MIC [12]: > 128 µg/mL | MIC [13]: > 128 µg/mL | MIC [14]: 64 µg/mL (≈ 94.3 µM) | MIC (Peptococcus prevoti 1281): 128 µg/mL (≈ 189 µM) | MIC [15]: > 128 µg/mL | MIC [16]: > 128 µg/mL | MIC [17]: > 128 µg/mL | MIC [18]: 128 µg/mL (≈ 189 µM) | ED50 (S. pyogenes): > 70 mg/kg | titratable groups (Electrometric titration): no titratable groups | activity against a number of anaerobic bacteria (anaerobic bacteria): active | in vivo antimicrobial activity against experimental bacterial infections [19]: have shown in vivo antimicrobial activity | Zone diameter [20, 30]: 17 mm. | Zone diameter [20, 33]: 15 mm. | Zone diameter [20, 31]: 23 mm. | Zone diameter [23, 33]: 20 mm. and 18 mm. | Zone diameter [23, 31]: 30 mm. and 24 mm. | Zone diameter [24, 30]: 25 mm. | Zone diameter [24, 33]: 22 mm. | Zone diameter [24, 31]: 35 mm. and 28 mm. | Zone diameter ([25]; 30 mcg./disc): 17 mm. | Zone diameter ([25]; 30 mcg./disc, listed as E): 13 mm. | Zone diameter ([25]; 300 mcg./disc): 27 mm. and 23 mm. | Zone diameter ([26]; 30 mcg./disc, listed as E): 13 mm. and 11 mm. | Zone diameter ([26]; 300 mcg./disc): 25 mm. and 24 mm. | solubility in organic solvents (Solubility): soluble

C/C=C/C=C/C(=O)NC(Cc1ccccc1)C(=O)NC1COC(=O)C2CCCN2C(=O)C(C)NC(=O)C(C)N(C)C(=O)C2CC(C)CN2C1=O (stereo not shown) [Factor C] ({Hexadienoyl(2E,4E)}-FS[ξPro(4ξ-Me)][NMeA]AP; ester 2-C; configuration not given here)
Zone diameter ([1]; 30 mcg./disc): 25 mm. | Zone diameter ([1]; 300 mcg./disc, listed as C): 35 mm. | zone of inhibition at 30 µg/disc ([1]; 30 mcg./disc, read-out: Zone diameter): 24 mm | zone of inhibition at 300 µg/disc ([1]; 300 mcg./disc, read-out: Zone diameter): 25 mm | MIC (Bacteroides fragilis 111): > 128 µg/mL | MIC [2]: > 128 µg/mL | MIC [3]: > 128 µg/mL | MIC [4]: > 128 µg/mL | MIC [5]: > 128 µg/mL | MIC [6]: > 128 µg/mL | MIC [7]: > 128 µg/mL | MIC [8]: > 128 µg/mL | MIC [9]: > 128 µg/mL | MIC [10]: > 128 µg/mL | MIC [11]: > 128 µg/mL | MIC [12]: 32 µg/mL (≈ 46.2 µM) | MIC [13]: > 128 µg/mL | MIC ([14]; agar-dilution, read-out: MIC): 16 µg/mL (≈ 23.1 µM) | MIC (Peptococcus prevoti 1281): > 128 µg/mL | MIC [15]: > 128 µg/mL | MIC [16]: > 128 µg/mL | MIC [17]: > 128 µg/mL | MIC [18]: > 128 µg/mL | ED50 (S. pyogenes): 11.1 mg/kg | titratable groups (Electrometric titration): no titratable groups | activity against a number of anaerobic bacteria (anaerobic bacteria): active | in vivo antimicrobial activity against experimental bacterial infections [19]: have shown in vivo antimicrobial activity | Zone diameter [20, 30]: 21 mm. and 23 mm. | Zone diameter [20, 31]: 25 mm. and 31 mm. | Zone diameter [23, 30]: 22 mm. and 28 mm. | Zone diameter [23, 31]: 30 mm. | Zone diameter [23, 34]: 33 mm. | Zone diameter [24, 30]: 25 mm. and 30 mm. | Zone diameter [24, 31]: 30 mm. | Zone diameter [24, 34]: 35 mm. | Zone diameter ([25]; 30 mcg./disc): 24 mm. | Zone diameter ([25]; 30 mcg./disc, listed as C): 21 mm. | Zone diameter ([25]; 300 mcg./disc): 30 mm. and 25 mm. | Zone diameter ([26]; 30 mcg./disc): 21 mm. and 23 mm. | Zone diameter ([26]; 300 mcg./disc): 24 mm. | Zone diameter ([26]; 300 mcg./disc, listed as C): 26 mm. | solubility in organic solvents (Solubility): soluble
